The nature of experiment [1]: Binding of labeled peptides to carious lesions in teeth (CLSM). More on the design: species or system human. Particulars: labeled peptide, settings optimized per sample. An excerpt:
Sections of human teeth containing obvious carious lesions, which consist of demineralized enamel, were polished and exposed to 5(6)-carboxyfluorescein-labeled DSS peptides and variants. The sections were washed extensively and imaged by CLSM using blue laser illumination (A=488 nm) and a FITC emission filter, with microscope and camera settings adjusted for each sample to optimize the signal detected from each peptide. The images were examined to identify the relative levels of peptide binding in healthy versus carious tissue. […] Given their ability to remineralize at sites of enamel degradation, they can also be used to initiate remineralization at sites of enamel degradation such as caries or injury sites without causing inappropriate nucleation on healthy tissue surfaces.

Experiment [2] can be described thus: Binding of calcium phosphate to immobilized DSS peptides on streptavidin-coated polystyrene beads. To be noted: biotin-conjugated peptide on beads, saturated CaHPO4 solutions. The method, then: Streptavidin-coated polystyrene beads with an average diameter of 4 μm (Spherotech, Lake Forest, Ill.) were incubated with either biotin-conjugated 8DSS (SEQ ID NO:33) peptide or unconjugated biotin (control beads). Beads were washed with PBS to remove unbound peptide (or unbound biotin in control beads) and incubated in a solution of PBS+1 mM CaCl2+1 mM NaHPO4 for 12 days prior to imaging. […] DSS-containing peptides containing C-terminal biotin labels were then synthesized and immobilized on streptavidin-coated beads. The beads were washed and incubated in solutions containing varying concentrations of CaHPO4 as before. Consistent with previous observations for the dentin phosphoproteins/phosphosphoryns as well as other phosphoproteins (Saito et al. (1997) Bone 21: 305-311; Saito et al. (2000) J Bone Miner Res., 15: 1615-1619), these immobilized peptides caused coaggregation of the beads with particles of amorphous CaHPO4 and eventually led to the deposition of crystalline material around the bead. […] By comparison, in the biotin-blocked control sample, nearly all beads were unaggregated and unassociated with precipitate (FIG. 9, panel B).

A short description of experiment [3]: DSS-mediated remineralization of demineralized tooth surfaces with Quell Desensitizer (SEM). More on the design: species or system human. To be noted: peptide pretreatment 1 h, then Quell Desensitizer 15 min. The method, then:
Adult human molars, extracted during normal clinical practice, were sagittally sectioned (Accutom-50, Copenhagen, Denmark; CA-231 diamond blade) and demineralized with 19% ethylenediaminotetraacetic acid (EDTA) gel for 1 h, followed by immersion in deionized water and ultrasonication to remove debris. Samples were treated with either 12.5 p.M 8DSS (SEQ ID NO:33) peptide in 50 mM HEPES buffer (pH 7.0) or buffer alone (no peptide) or were left untreated for 1 h prior to remineralization with Quell Desensitizer (Pentron Technologies, Wallingford, Conn.), a remineralization solution consisting of aqueous solutions of calcium chloride and potassium phosphate, for 15 min. Samples were rinsed thoroughly prior to imaging by scanning electron microscopy. Having established that (DSS)n-containing peptides can bind to the dentin surface and that immobilized peptides could cause the accretion of calcium phosphate, we sought to determine whether these peptides could be used to recruit calcium phosphate to the dentin surface. Demineralized sections of extracted human teeth were treated with 8DSS (SEQ ID NO:33) peptide and then subjected to remineralization with Quell Desensitizer (Pentron Technologies), a commercially available remineralization product consisting of aqueous solutions of calcium chloride and potassium phosphate.

Entries after “also recorded” stand apart in the source; their conditions may differ.

In the case of “DSS DSS DSSDSS DSS DSS DSS DSS (DSSDSSDSSDSSDSSDSSDSSDSS; synthetic calcium-binding peptide 8DSS)”, in experiment [1], the “specificity of binding to carious lesions versus healthy enamel” value was “highly specific binding to carious lesions” and the “strength of staining of carious lesions” value is reported as “exceptionally strong staining of carious lesions”. The “aggregation/accretion of calcium phosphate by immobilized peptide” value in experiment [2] is listed as “effectively aggregate amorphous calcium phosphate”. The “mineral accumulation on demineralized dentin” value in experiment [3] is “accumulated a continuous layer of calcium phosphate precipitate; also recorded: markedly enhanced the effectiveness of a commercially available remineralization product”.

Values taken from US8889156B2, “Calcium-binding agents induce hair growth and/or nail growth” (priority 2009, dated 2014).
